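These data come from cells grown in 96-well plates and exposed to compound for 48 hours at five concentrations. GI50 marks 50% less growth. TGI: concentration producing complete growth inhibition.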
Experiments:
Assay in all cases: growth of human tumour cells (NCI), 48 h
OVCAR-5 ovarian = test system: OVCAR-5 ovarian
HS 578T breast = test system: HS 578T breast
M14 melanoma = test system: M14 melanoma
SK-OV-3 ovarian = test system: SK-OV-3 ovarian
RPMI-8226 leukemia = test system: RPMI-8226 leukemia
UACC-62 melanoma = test system: UACC-62 melanoma
NCI-H522 lung = test system: NCI-H522 lung
BT-549 breast = test system: BT-549 breast
U251 CNS = test system: U251 CNS
A498 renal = test system: A498 renal
OVCAR-3 ovarian = test system: OVCAR-3 ovarian
NCI-H226 lung = test system: NCI-H226 lung
NCI-H23 lung = test system: NCI-H23 lung
LOX IMVI melanoma = test system: LOX IMVI melanoma
MDA-MB-435 = test system: MDA-MB-435
SNB-19 CNS = test system: SNB-19 CNS
HL-60(TB) leukemia = test system: HL-60(TB) leukemia
MOLT-4 leukemia = test system: MOLT-4 leukemia
CCRF-CEM leukemia = test system: CCRF-CEM leukemia
HOP-62 NSCLC = test system: HOP-62 NSCLC
SF-295 CNS = test system: SF-295 CNS
COLO 205 colon = test system: COLO 205 colon
HCT-15 colon = test system: HCT-15 colon
HCT-116 colon = test system: HCT-116 colon

CC#C/C(=N\OC[C@H]1COCCN1)c1ccc2ncnc(Nc3ccc(OCc4cccc(F)c4)c(Cl)c3)c2c1
GI50 (OVCAR-5 ovarian): 1650 nM
TGI (OVCAR-5 ovarian): 4270 nM
GI50 (HS 578T breast): 1890 nM
TGI (HS 578T breast): 4460 nM
GI50 (M14 melanoma): 1760 nM
TGI (M14 melanoma): 3590 nM
GI50 (SK-OV-3 ovarian): 17.6 nM
TGI (SK-OV-3 ovarian): 1350 nM
GI50 (RPMI-8226 leukemia): 1660 nM
TGI (RPMI-8226 leukemia): 3810 nM
GI50 (UACC-62 melanoma): 1680 nM
TGI (UACC-62 melanoma): 3110 nM
GI50 (NCI-H522 lung): 393 nM
TGI (NCI-H522 lung): 2250 nM
GI50 (BT-549 breast): 6060 nM
TGI (BT-549 breast): 20500 nM
GI50 (U251 CNS): 1710 nM
TGI (U251 CNS): 3220 nM
GI50 (A498 renal): 2070 nM
TGI (A498 renal): 7700 nM
GI50 (OVCAR-3 ovarian): 1430 nM
TGI (OVCAR-3 ovarian): 2940 nM
GI50 (NCI-H226 lung): 12000 nM
TGI (NCI-H226 lung): 40300 nM
GI50 (NCI-H23 lung): 1740 nM
TGI (NCI-H23 lung): 3410 nM
GI50 (LOX IMVI melanoma): 1750 nM
TGI (LOX IMVI melanoma): 3290 nM
GI50 (MDA-MB-435): 1670 nM
TGI (MDA-MB-435): 3100 nM
GI50 (SNB-19 CNS): 1300 nM
TGI (SNB-19 CNS): 2690 nM
GI50 (HL-60(TB) leukemia): 2040 nM
TGI (HL-60(TB) leukemia): 4570 nM
GI50 (MOLT-4 leukemia): 1800 nM
TGI (MOLT-4 leukemia): 3910 nM
GI50 (CCRF-CEM leukemia): 1730 nM
TGI (CCRF-CEM leukemia): 3850 nM
GI50 (HOP-62 NSCLC): 3000 nM
TGI (HOP-62 NSCLC): 11300 nM
GI50 (SF-295 CNS): 1720 nM
TGI (SF-295 CNS): 3260 nM
GI50 (COLO 205 colon): 1770 nM
TGI (COLO 205 colon): 3330 nM
GI50 (HCT-15 colon): 1410 nM
TGI (HCT-15 colon): 2810 nM
GI50 (HCT-116 colon): 1690 nM
TGI (HCT-116 colon): 3420 nM

Reference: PubChem BioAssay (NCI)
